Key:
Format in all cases: functional
Candida albicans [1] = experiment: Antifungal activity against Candida albicans ATCC 10231 after 24 hrs by twofold serial agar dilution technique; details: ATCC 10231, 24 h
Pseudomonas aeruginosa [2] = experiment: Antibacterial activity against Pseudomonas aeruginosa ATCC 15442 assessed as zone of inhibition at 400 ug/disc after 18 hrs by disc diffusion method; details: ATCC 15442, 18 h, read-out: DIZ
[3] = test system: Staphylococcus epidermidis; experiment: Antibacterial activity against Staphylococcus epidermidis ATCC 35984 after 18 hrs by twofold serial agar dilution technique; details: ATCC 35984, 18 h
Pseudomonas aeruginosa [4] = experiment: Antibacterial activity against Pseudomonas aeruginosa ATCC 15442 after 18 hrs by twofold serial agar dilution technique; details: ATCC 15442, 18 h
Proteus vulgaris [5] = experiment: Antibacterial activity against Proteus vulgaris NCTC 4635 assessed as zone of inhibition at 400 ug/disc after 18 hrs by disc diffusion method; details: NCTC 4635, 18 h, read-out: DIZ
[6] = test system: Staphylococcus epidermidis; experiment: Antibacterial activity against Staphylococcus epidermidis ATCC 12228 after 18 hrs by twofold serial agar dilution technique; details: ATCC 12228, 18 h
Escherichia coli [7] = experiment: Antibacterial activity against Escherichia coli ATCC 10538 assessed as zone of inhibition at 400 ug/disc after 18 hrs by disc diffusion method; details: ATCC 10538, 18 h, read-out: DIZ
[8] = test system: Staphylococcus epidermidis; experiment: Antibacterial activity against Staphylococcus epidermidis ATCC 35984 assessed as zone of inhibition at 400 ug/disc after 18 hrs by disc diffusion method; details: ATCC 35984, 18 h, read-out: DIZ
Escherichia coli [9] = experiment: Antibacterial activity against Escherichia coli NCTC 8196 after 18 hrs by twofold serial agar dilution technique; details: NCTC 8196, 18 h
Staphylococcus aureus [10] = experiment: Antibacterial activity against Staphylococcus aureus ATCC 29213 assessed as zone of inhibition at 400 ug/disc after 18 hrs by disc diffusion method; details: ATCC 29213, 18 h, read-out: DIZ
Proteus vulgaris [11] = experiment: Antibacterial activity against Proteus vulgaris NCTC 4635 after 18 hrs by twofold serial agar dilution technique; details: NCTC 4635, 18 h
Pseudomonas aeruginosa [12] = experiment: Antibacterial activity against Pseudomonas aeruginosa ATCC 27853 after 18 hrs by twofold serial agar dilution technique; details: ATCC 27853, 18 h
Escherichia coli [13] = experiment: Antibacterial activity against Escherichia coli ATCC 10538 after 18 hrs by twofold serial agar dilution technique; details: ATCC 10538, 18 h
Staphylococcus aureus [14] = experiment: Antibacterial activity against Staphylococcus aureus ATCC 6538 assessed as zone of inhibition at 400 ug/disc after 18 hrs by disc diffusion method; details: ATCC 6538, 18 h, read-out: DIZ
[15] = test system: Bordetella bronchiseptica; experiment: Antibacterial activity against Bordetella bronchiseptica ATCC 4617 assessed as zone of inhibition at 400 ug/disc after 18 hrs by disc diffusion method; details: ATCC 4617, 18 h, read-out: DIZ
Escherichia coli [16] = experiment: Antibacterial activity against Escherichia coli ATCC 25922 assessed as zone of inhibition at 400 ug/disc after 18 hrs by disc diffusion method; details: ATCC 25922, 18 h, read-out: DIZ
Candida parapsilosis = experiment: Antifungal activity against Candida parapsilosis ATCC 22019 after 24 hrs by twofold serial agar dilution technique; details: Lodderomyces parapsilosis, ATCC 22019, 24 h
Escherichia coli [17] = experiment: Antibacterial activity against Escherichia coli NCTC 8196 assessed as zone of inhibition at 400 ug/disc after 18 hrs by disc diffusion method; details: NCTC 8196, 18 h, read-out: DIZ
Staphylococcus aureus [18] = experiment: Antibacterial activity against Staphylococcus aureus ATCC 25923 assessed as zone of inhibition at 400 ug/disc after 18 hrs by disc diffusion method; details: ATCC 25923, 18 h, read-out: DIZ
Staphylococcus aureus [19] = experiment: Antibacterial activity against Staphylococcus aureus NCTC 4163 assessed as zone of inhibition at 400 ug/disc after 18 hrs by disc diffusion method; details: NCTC 4163, 18 h, read-out: DIZ
Staphylococcus aureus [20] = experiment: Antibacterial activity against Staphylococcus aureus NCTC 4163 after 18 hrs by twofold serial agar dilution technique; details: NCTC 4163, 18 h
Escherichia coli [21] = experiment: Antibacterial activity against Escherichia coli ATCC 25922 after 18 hrs by twofold serial agar dilution technique; details: ATCC 25922, 18 h
Pseudomonas aeruginosa [22] = experiment: Antibacterial activity against Pseudomonas aeruginosa ATCC 27853 assessed as zone of inhibition at 400 ug/disc after 18 hrs by disc diffusion method; details: ATCC 27853, 18 h, read-out: DIZ
Pseudomonas aeruginosa [23] = experiment: Antibacterial activity against Pseudomonas aeruginosa NCTC 6749 after 18 hrs by twofold serial agar dilution technique; details: NCTC 6749, 18 h
Staphylococcus aureus [24] = experiment: Antibacterial activity against Staphylococcus aureus ATCC 6538 after 18 hrs by twofold serial agar dilution technique; details: ATCC 6538, 18 h
[25] = test system: Bordetella bronchiseptica; experiment: Antibacterial activity against Bordetella bronchiseptica ATCC 4617 after 18 hrs by twofold serial agar dilution technique; details: ATCC 4617, 18 h
[26] = test system: Staphylococcus epidermidis; experiment: Antibacterial activity against Staphylococcus epidermidis ATCC 12228 assessed as zone of inhibition at 400 ug/disc after 18 hrs by disc diffusion method; details: ATCC 12228, 18 h, read-out: DIZ
Pseudomonas aeruginosa [27] = experiment: Antibacterial activity against Pseudomonas aeruginosa NCTC 6749 assessed as zone of inhibition at 400 ug/disc after 18 hrs by disc diffusion method; details: NCTC 6749, 18 h, read-out: DIZ
Staphylococcus aureus [28] = experiment: Antibacterial activity against Staphylococcus aureus ATCC 29213 after 18 hrs by twofold serial agar dilution technique; details: ATCC 29213, 18 h
Candida albicans [29] = experiment: Antifungal activity against Candida albicans ATCC 90028 after 24 hrs by twofold serial agar dilution technique; details: ATCC 90028, 24 h
Staphylococcus aureus [30] = experiment: Antibacterial activity against Staphylococcus aureus ATCC 25923 after 18 hrs by twofold serial agar dilution technique; details: ATCC 25923, 18 h

SMILES	MIC (Candida albicans [1]) [µg/mL]	zone of inhibition at 400 µg/disc (Pseudomonas aeruginosa [2]) [mm]	MIC [3] [µg/mL]	MIC (Pseudomonas aeruginosa [4]) [µg/mL]	zone of inhibition at 400 µg/disc (Proteus vulgaris [5]) [mm]	MIC [6] [µg/mL]	zone of inhibition at 400 µg/disc (Escherichia coli [7]) [mm]	zone of inhibition at 400 µg/disc [8] [mm]	MIC (Escherichia coli [9]) [µg/mL]	zone of inhibition at 400 µg/disc (Staphylococcus aureus [10]) [mm]	MIC (Proteus vulgaris [11]) [µg/mL]	MIC (Pseudomonas aeruginosa [12]) [µg/mL]	MIC (Escherichia coli [13]) [µg/mL]	zone of inhibition at 400 µg/disc (Staphylococcus aureus [14]) [mm]	zone of inhibition at 400 µg/disc [15] [mm]	zone of inhibition at 400 µg/disc (Escherichia coli [16]) [mm]	MIC (Candida parapsilosis) [µg/mL]	zone of inhibition at 400 µg/disc (Escherichia coli [17]) [mm]	zone of inhibition at 400 µg/disc (Staphylococcus aureus [18]) [mm]	zone of inhibition at 400 µg/disc (Staphylococcus aureus [19]) [mm]	also measured
CC[C@@H](C(=O)[C@@H](C)[C@@H](O)[C@H](C)[C@@H]1O[C@@H]([C@@H](CC)C(=O)NCCc2c[nH]c3ccccc23)CC[C@@H]1C)[C@H]1O[C@]2(C=C[C@@H](O)[C@]3(CC[C@@](C)([C@H]4CC[C@](O)(CC)[C@H](C)O4)O3)O2)[C@H](C)C[C@@H]1C	≥ 256	10	≥ 256	≥ 256	10	≥ 256	10	10	≥ 256	10	≥ 256	≥ 256	≥ 256	10	10	10	≥ 256	10	10	10	MIC (Staphylococcus aureus [20]): ≥ 256 µg/mL; MIC (Escherichia coli [21]): ≥ 256 µg/mL; zone of inhibition at 400 µg/disc (Pseudomonas aeruginosa [22]): 10 mm; MIC (Pseudomonas aeruginosa [23]): ≥ 256 µg/mL; MIC (Staphylococcus aureus [24]): ≥ 256 µg/mL; MIC [25]: ≥ 256 µg/mL; zone of inhibition at 400 µg/disc [26]: 10 mm; zone of inhibition at 400 µg/disc (Pseudomonas aeruginosa [27]): 10 mm; MIC (Staphylococcus aureus [28]): ≥ 256 µg/mL; MIC (Candida albicans [29]): ≥ 256 µg/mL; MIC (Staphylococcus aureus [30]): ≥ 256 µg/mL
CC[C@@H](C(=O)[C@@H](C)[C@@H](O)[C@H](C)[C@@H]1O[C@@H]([C@@H](CC)C(=O)NCc2ccccc2)CC[C@@H]1C)[C@H]1O[C@]2(C=C[C@@H](O)[C@]3(CC[C@@](C)([C@H]4CC[C@](O)(CC)[C@H](C)O4)O3)O2)[C@H](C)C[C@@H]1C	≥ 256	10	≥ 256	≥ 256	10	≥ 256	10	10	≥ 256	10	≥ 256	≥ 256	≥ 256	10	10	10	≥ 256	10	10	10	MIC (Staphylococcus aureus [20]): ≥ 256 µg/mL; MIC (Escherichia coli [21]): ≥ 256 µg/mL; zone of inhibition at 400 µg/disc (Pseudomonas aeruginosa [22]): 10 mm; MIC (Pseudomonas aeruginosa [23]): ≥ 256 µg/mL; MIC (Staphylococcus aureus [24]): ≥ 256 µg/mL; MIC [25]: ≥ 256 µg/mL; zone of inhibition at 400 µg/disc [26]: 10 mm; zone of inhibition at 400 µg/disc (Pseudomonas aeruginosa [27]): 10 mm; MIC (Staphylococcus aureus [28]): ≥ 256 µg/mL; MIC (Candida albicans [29]): ≥ 256 µg/mL; MIC (Staphylococcus aureus [30]): ≥ 256 µg/mL
CCCCNC(=O)[C@H](CC)[C@H]1CC[C@H](C)[C@H]([C@@H](C)[C@H](O)[C@H](C)C(=O)[C@H](CC)[C@H]2O[C@]3(C=C[C@@H](O)[C@]4(CC[C@@](C)([C@H]5CC[C@](O)(CC)[C@H](C)O5)O4)O3)[C@H](C)C[C@@H]2C)O1	≥ 256	10	≥ 256	≥ 256	10	≥ 256	10	10	≥ 256	10	≥ 256	≥ 256	≥ 256	10	10	10	≥ 256	10	10	10	MIC (Staphylococcus aureus [20]): ≥ 256 µg/mL; MIC (Escherichia coli [21]): ≥ 256 µg/mL; zone of inhibition at 400 µg/disc (Pseudomonas aeruginosa [22]): 10 mm; MIC (Pseudomonas aeruginosa [23]): ≥ 256 µg/mL; MIC (Staphylococcus aureus [24]): ≥ 256 µg/mL; MIC [25]: ≥ 256 µg/mL; zone of inhibition at 400 µg/disc [26]: 10 mm; zone of inhibition at 400 µg/disc (Pseudomonas aeruginosa [27]): 10 mm; MIC (Staphylococcus aureus [28]): ≥ 256 µg/mL; MIC (Candida albicans [29]): ≥ 256 µg/mL; MIC (Staphylococcus aureus [30]): ≥ 256 µg/mL

Reference: ChEMBL document CHEMBL2046376, “Synthesis and antimicrobial activity of amide derivatives of polyether antibiotic-salinomycin” (2012)
